Here are results for 1 molecule from patent publication US10624338B2, “Nitrite microencapsulation, and uses of microencapsulated nitrite in the manufacture of pest baits” (priority 2016, dated 2020).

SMILES strings stand for the structures.

This data set in a line: Scanning electron microscope inspection of encapsulated granules. In kind it is physicochemical. Particulars: SEM. On the procedure:
NaNO2 granules (food grade E250, BASF) approximately 0.2-1.0 mm and zein (USP30/NF25, Rebain International Ltd) were used as supplied. NaNO2 granules were dried in a commercial oven for 12 hours at 60° C. to remove any residual moisture. NaNO2 granules (500 g) were coated using a pan coating process; zein (10%) was dissolved in a mixture of water (10%) and ethanol (80%). For coatings containing plasticizer, zein (9.9%) was dissolved in a mixture of water (10%) and ethanol (80%) and either glycerol, PVP or PEG 400 were added at 0.1% to make a mixture containing zein and one of the potential plasticizers. To coat the NaNO2, 500 g of granules were placed in a spherical pan, the pan was rotated at 20 revolutions per minute, the liquid encapsulant solution was sprayed onto the granules at one litre per hour while the whole was warmed to 40° C. by warm predried air directed onto the granule bed to progressively evaporate the solvents. Once all coating material was applied the granules continued to be rotated to ensure drying.
NaNO2 coated in each of the four different solutions outlined above as well as uncoated NaNO2 granules were assessed visually using a scanning electron microscope (SEM) (Philips XL30S FEG, Netherlands). Samples were sputter coated with gold for 2 min (Quorum Technologies Polaron SC 7640 sputter coater, England) and viewed at an accelerating voltage of 5 kV. […]

Regarding `O=N[O-].[Na+]` [Uncoated NaNO2 granules, sodium nitrite], where the note is “54x/55x and 250x magnification”, the aggregation of granules result was “strong tendency to aggregate”. For the same molecule, the “surface of granule / coat (cracks)” value (1000x magnification) is “covered in surface fissures”.
